Experimental data published in patent publication US4346097A, “Method for treating convulsions with pyrazole-4-carboxamide derivatives” (Warner-Lambert Company, priority 1980, dated 1982).

Key:
[1] = Rotorod Test, TD50; conditions: in vivo
Description: (§1) The term convulsions is intended to mean the characteristic body movements which are associated with the group of chronic central nervous system disorders termed, epilepsies.
(§2) These procedures are described in E. A. Swinyard, et al., Epilepsia, 19, 409 (1978), which is incorporated herein by reference. The TD50 is defined as the median minimal neurotoxic dose.

[2] = Maximal Electroshock Seizure Test, MES; type: in vivo; conditions: for PI MES: Protective Index, ratio of TD50 vs ED50 MES
Description: as §1
2. Maximal Electroshock Seizure Test, MES.
as §2

[3] = Subcutaneous Pentylenetetrazole Seizure Threshold Test, scMet; type: in vivo; conditions: for PI scMet: Protective Index, ratio of TD50 vs ED50 scMet; for ED50: sc
Description: The compounds of structural formula I are new chemical substances of value as pharmacological agents for the treatment of convulsions in warm-bloodedanimals. The term convulsions is intended to mean the characteristic body movements which are associated with the group of chronic central nervous system disorders termed, epilepsies. The anticonvulsant activity of representative compounds of formula I was established by the following standard test procedures: […]
3. Subcutaneous Pentylenetetrazole Seizure Threshold Test, scMet.
as §2

| SMILES | TD50 [1] [mg/kg] | ED50 [2] [mg/kg] | PI MES [2] | PI scMet [3] | ED50 [3] [mg/kg] |
| --- | --- | --- | --- | --- | --- |
| Cc1ccccc1NC(=O)c1c(C)nn(C)c1N [5-Amino-1,3-dimethyl-N-(2-methylphenyl)-1H-pyrazole-4-carboxamide] | 104 | 25.7 | 4.05 | 1.94 | 53.7 |
| Cc1nn(C)c(N)c1C(=O)Nc1cccc(Cl)c1 [5-Amino-N-(3-chlorophenyl)-1,3-dimethyl-1H-pyrazole-4-carboxamide] | 234 | 47.3 | 4.95 | 2.35 | 99.6 |
| NC(=O)N1c2ccccc2C=Cc2ccccc21 [CARBAMAZEPINE] | – | 8.81 | – | – | – |
| CCC1(c2ccccc2)NC(=O)N(C)C1=O (stereo not shown) [MEPHENYTOIN] | 154 | 60.5 | 2.54 | 5.05 | 30.4 |
